Reference: patent US8614182B2 (Jiangsu Hansoh Pharmaceuticals Co., Ltd., priority 2009, dated 2013)
Values belong to the compound of their own block, whether it stands above or below them. Non-standard residues stand in square brackets, D forms with d. Residues, ends and D or L forms follow the SMILES beside them. *: point of attachment. εLys(Nα-Palmitoyl) = CCCCCCCCCCCCCCCC(=O)N[C@@H](CCCCN*)C(=O)O

Tests used:
[1] = target: T1, Glucagon-like peptide-1 receptor (GLP1R) (Homo sapiens, UniProt P43220); test: Agonist activity on GLP1R, cAMP response element luciferase reporter gene in HEK293 cells; type: cell-based; details: HEK293 cells stably transfected with GLP1R and pCRE-Luc, 5 hours incubation; read-out: Maximum reaction rate
T1 construct: expressed in transfected cells; host or cells: HEK293
Excerpt: GLP1R is a receptor coupled with Gs protein, of which the binding with the agonists will result in an increase of intracellular cAMP concentration. In the present experiment, GLP1R and the luciferase reporter gene plasmid regulated by cAMP response elements are co-transfected into HEK293 cells. When the compound binds to the receptor and activates the receptors, the expression of the luciferase will increase. The activation status of the compound to GLP1R can be learned by testing the activity of the luciferase.
2. The compounds or positive drugs having a certain concentration gradient were added (3 wells per concentration) and incubated at 37° C. for 5 hours. The negative control was solvent DMSO.
3. 50 μl culture medium was taken from each well, and 50 μl of the luciferase substrate were added and vortexed for 10 minutes.
4. 80 μl reaction solution was taken and transferred to a white 96 well plate, then detected on the Invision microplate reader (enzyme-labelling measuring instrument).

[2] = system: db/db mice with type 2 diabetes; test: Random blood glucose of db/db mice after single subcutaneous injection; type: in vivo; details: for random blood glucose: n = 8; for decrease rate of random blood glucose: versus control group
Experimental: db/db mice with type 2 diabetes were divided into six groups based on a random blood glucose and body weight (8 per group). […] The random blood glucose of the mice is determined at differete time after administration.
Preparation method: 1 bottle of the compound (2 mg/bottle) was dissolved with double-distilled water to prepare a colorless and transparent solution of which the concentration is 2 mg/mL. […] “ACCU-CHEK® Advantage” blood glucose meter form Roche was used to determine the blood glucose.
Route and volume of administration: Single subcutaneous injection dose, dose volume was 5 mL/kg. […]
The random blood glucoses of db/db mice were measured.
Each group has 8 mice, half male and half female. The animals of each group were administered with the test compounds or solvent control respectively through single subcutaneous injection.

T1 sequence (P43220 24-463, species assumed): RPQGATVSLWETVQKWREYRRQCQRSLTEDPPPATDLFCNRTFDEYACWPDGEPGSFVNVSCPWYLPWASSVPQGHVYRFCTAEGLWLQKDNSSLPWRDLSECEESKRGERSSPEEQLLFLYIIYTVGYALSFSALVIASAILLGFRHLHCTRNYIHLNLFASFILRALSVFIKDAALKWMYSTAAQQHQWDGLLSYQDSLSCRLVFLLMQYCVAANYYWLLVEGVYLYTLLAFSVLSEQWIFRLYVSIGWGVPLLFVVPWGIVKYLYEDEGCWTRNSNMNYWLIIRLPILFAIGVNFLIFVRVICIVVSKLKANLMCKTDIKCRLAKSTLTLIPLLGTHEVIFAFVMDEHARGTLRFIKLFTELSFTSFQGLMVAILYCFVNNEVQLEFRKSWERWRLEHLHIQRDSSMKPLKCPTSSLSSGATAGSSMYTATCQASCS

SMILES: CCCCCCCCCCCCCCCC(=O)N[C@@H](CCCCNC(=O)[C@H](CO)NC(=O)[C@@H]1CCCN1C(=O)[C@@H]1CCCN1C(=O)[C@@H]1CCCN1C(=O)[C@H](C)NC(=O)CNC(=O)[C@H](CO)NC(=O)[C@H](CO)NC(=O)[C@@H]1CCCN1C(=O)CNC(=O)CNC(=O)[C@H](CCCNC(=N)N)NC(=O)[C@@H](NC(=O)[C@H](CC(C)C)NC(=O)[C@H](Cc1c[nH]c2ccccc12)NC(=O)[C@H](C)NC(=O)[C@@H](NC(=O)[C@H](Cc1ccccc1)NC(=O)[C@H](CCC(=O)O)NC(=O)[C@H](CCCCN)NC(=O)[C@H](C)NC(=O)[C@H](C)NC(=O)[C@H](CCC(=O)O)NC(=O)[C@H](CCC(=O)O)NC(=O)[C@H](CCC(=O)O)NC(=O)[C@H](CC(C)C)NC(=O)[C@H](Cc1ccc(O)cc1)NC(=O)[C@H](CO)NC(=O)[C@H](CO)NC(=O)[C@@H](NC(=O)[C@H](CC(=O)O)NC(=O)[C@H](CO)NC(=O)[C@@H](NC(=O)[C@H](Cc1ccccc1)NC(=O)[C@@H](NC(=O)CNC(=O)[C@H](CCC(=O)O)NC(=O)[C@@H](C)NC(=O)[C@@H](N)Cc1c[nH]cn1)[C@@H](C)O)[C@@H](C)O)C(C)C)[C@@H](C)CC)C(C)C)C(=O)O [HS-20003] (H-H[dA]EGTFTSDVSSYLEEEAAKEFIAWLVRGGPSSGAPPPS-{εLys(Nα-Palmitoyl)}; N-terminus and C-terminus assumed)
Emax [1]: 87.9% | random blood glucose ([2]; 3 μg/kg single s.c., 1 h after administration, X ± s): 19.56 ± 1.19 mmol/L | decrease rate of random blood glucose ([2]; 3 μg/kg single s.c., 1 h after administration): 17.33% | random blood glucose ([2]; 3 μg/kg single s.c., 2 h after administration, X ± s): 19.44 ± 1.48 mmol/L | decrease rate of random blood glucose ([2]; 3 μg/kg single s.c., 2 h after administration): 14.09% | random blood glucose ([2]; 3 μg/kg single s.c., 4 h after administration, X ± s): 19.63 ± 1.12 mmol/L | decrease rate of random blood glucose ([2]; 3 μg/kg single s.c., 4 h after administration): 10.80% | random blood glucose ([2]; 3 μg/kg single s.c., 8 h after administration, X ± s): 22.59 ± 1.05 mmol/L | decrease rate of random blood glucose ([2]; 3 μg/kg single s.c., 8 h after administration): 11.03% | random blood glucose values compared with those of the control group ([2]; 3 μg/kg single s.c., after 2 h, 4 h and 8 h): no significant difference | random blood glucose values compared with those of the control group ([2]; 3 μg/kg single s.c., after one hour, P<0.05): decreased significantly | random blood glucose ([2]; 3 μg/kg single s.c., before administration, X ± s): 25.16 ± 1.49 mmol/L | decrease rate of random blood glucose ([2]; 10 μg/kg single s.c., 1 h after administration): 23.62% | random blood glucose ([2]; 10 μg/kg single s.c., 1 h after administration, ± s): 20.74 ± 0.98 mmol/L | decrease rate of random blood glucose ([2]; 10 μg/kg single s.c., 2 h after administration): 25.93% | random blood glucose ([2]; 10 μg/kg single s.c., 2 h after administration, ± s): 21.10 ± 0.80 mmol/L | decrease rate of random blood glucose ([2]; 10 μg/kg single s.c., 4 h after administration): 36.49% | random blood glucose ([2]; 10 μg/kg single s.c., 4 h after administration, ± s): 19.54 ± 1.80 mmol/L | decrease rate of random blood glucose ([2]; 10 μg/kg single s.c., 8 h after administration): 26.12% | random blood glucose ([2]; 10 μg/kg single s.c., 8 h after administration, ± s): 22.14 ± 2.16 mmol/L | decrease rate of random blood glucose ([2]; 10 μg/kg single s.c., 24 h after administration): 11.89% | random blood glucose ([2]; 10 μg/kg single s.c., 24 h after administration, ± s): 24.45 ± 1.55 mmol/L | random blood glucose values compared with those of the control group ([2]; 10 μg/kg single s.c., after 2 h, 4 h and 8 h): still keep at a lower level | random blood glucose values compared with those of the control group ([2]; 10 μg/kg single s.c., after 24 hours): no significant difference | random blood glucose values compared with those of the control group ([2]; 10 μg/kg single s.c., after one hour, P<0.01): decreased significantly | random blood glucose ([2]; 10 μg/kg single s.c., before administration, ± s): 23.20 ± 1.36 mmol/L | random blood glucose level (words, test conclusions) ([2]; single s.c., dose of 3 μg/kg (so in the source)): decreased obviously

Emax [1]: 89.1%
SMILES: CCCCCCCCCCCCCCCC(=O)N[C@@H](CCCCNC(=O)[C@H](CO)NC(=O)[C@@H]1CCCN1C(=O)[C@@H]1CCCN1C(=O)[C@@H]1CCCN1C(=O)CNC(=O)CNC(=O)[C@H](CCCCN)NC(=O)[C@H](CCCCN)NC(=O)CNC(=O)[C@H](CCCNC(=N)N)NC(=O)CNC(=O)[C@H](CCCCN)NC(=O)[C@@H](NC(=O)[C@H](CC(C)C)NC(=O)[C@H](Cc1c[nH]c2ccccc12)NC(=O)[C@@H](NC(=O)[C@@H](NC(=O)[C@H](Cc1ccccc1)NC(=O)[C@H](CCC(=O)O)NC(=O)[C@H](C)NC(=O)[C@H](C)NC(=O)[C@H](CCC(N)=O)NC(=O)CNC(=O)[C@H](CCC(=O)O)NC(=O)[C@H](CC(C)C)NC(=O)[C@H](Cc1ccc(O)cc1)NC(=O)[C@H](CO)NC(=O)[C@H](CO)NC(=O)[C@@H](NC(=O)[C@H](CC(=O)O)NC(=O)[C@H](CO)NC(=O)[C@@H](NC(=O)[C@H](Cc1ccccc1)NC(=O)[C@@H](NC(=O)CNC(=O)[C@H](CCC(=O)O)NC(=O)[C@H](C)NC(=O)[C@@H](N)Cc1c[nH]cn1)[C@@H](C)O)[C@@H](C)O)C(C)C)[C@@H](C)CC)C(C)C)C(C)C)C(=O)O [HS-20005]

Emax [1]: 87%
SMILES: CCCCCCCCCCCCCCCC(=O)N[C@@H](CCCCNC(=O)[C@H](CO)NC(=O)[C@@H]1CCCN1C(=O)[C@@H]1CCCN1C(=O)[C@@H]1CCCN1C(=O)CNC(=O)CNC(=O)[C@H](CCCCN)NC(=O)[C@H](CCCCN)NC(=O)CNC(=O)[C@H](CCCNC(=N)N)NC(=O)CNC(=O)[C@H](CCCCN)NC(=O)[C@@H](NC(=O)[C@H](CC(C)C)NC(=O)[C@H](Cc1c[nH]c2ccccc12)NC(=O)[C@@H](NC(=O)[C@@H](NC(=O)[C@H](Cc1ccccc1)NC(=O)[C@H](CCC(=O)O)NC(=O)[C@H](C)NC(=O)[C@H](C)NC(=O)[C@H](CCC(N)=O)NC(=O)[C@H](CCC(=O)O)NC(=O)[C@H](CCC(=O)O)NC(=O)[C@H](CC(C)C)NC(=O)[C@H](Cc1ccc(O)cc1)NC(=O)[C@H](CO)NC(=O)[C@H](CO)NC(=O)[C@@H](NC(=O)[C@H](CC(=O)O)NC(=O)[C@H](CO)NC(=O)[C@@H](NC(=O)[C@H](Cc1ccccc1)NC(=O)[C@@H](NC(=O)CNC(=O)[C@H](CCC(=O)O)NC(=O)[C@H](C)NC(=O)[C@@H](N)Cc1c[nH]cn1)[C@@H](C)O)[C@@H](C)O)C(C)C)[C@@H](C)CC)C(C)C)C(C)C)C(=O)O [HS-20007]
